Experimental data from publication PMC4933725, “Traxoprodil, a selective antagonist of the NR2B subunit of the NMDA receptor, potentiates the antidepressant-like effects of certain antidepressant drugs in the forced swim test in mice” (Metabolic Brain Disease, 2016).
Counter-ions that a name gives are not always drawn.

Assays:
[1] = system: mice; assay: Forced swim test (FST) in mice; assay type: in vivo, Albino Swiss mice; details: for immobility time in FST vs control group: Fig. 1
Description: Each mouse was placed individually into a glass cylinder (height 25 cm, diameter 10 cm) containing 12–15 cm of water at 23–25 °C. The animal was left in the cylinder for 6 min. The total duration of immobility was recorded during the last 4 min of the 6-min testing period. The mouse was judged to be immobile when it ceased struggling and remained floating motionless in the water, making only the movements necessary to keep its head above the water level.

[2] = Determination of antidepressants and traxoprodil in brains by HPLC; details: for concentration at 60 min: Albino Swiss, mouse, brain, intraperitoneal; for concentration at 60 min / Antidepressants concentration in brain: 60 min before decapitation, mean ± SEM; for change of concentration in brain tissue after joint administration with traxoprodil: traxoprodil 10 mg/kg co-administered, Student's t-test vs drug + saline
Description: Sixty minutes following administration of studied antidepressant drugs with or without traxoprodil, mice were decapitated to collect brains for pharmacokinetic studies. Immediately after the decapitation, the brains were dissected from the skull, washed with 0.9 % NaCl and frozen at −25 °C.
Brain concentrations of the studied antidepressants and traxoprodil were assayed by high performance liquid chromatography (HPLC) methods. The brains were homogenized in distilled water (1 : 4, w/v) with a tissue homogenizer TH220 (Omni International, Inc., Warrenton, VA, USA). For all studied antidepressant drugs, the extraction from brain homogenates were performed using the mixture of ethyl acetate : hexane (30 : 70, v/v). Amitriptyline (2 μg/ml) was used as an internal standard (IS) for imipramine and paroxetine (200 ng/ml) for fluoxetine and escitalopram. In order to isolate imipramine and its metabolite desipramine, to brain homogenate (0.5 ml) containing these drugs the IS was added and the samples were alkalized with 250 μl of 4 M NaOH. Then the samples were extracted with 5 ml of the extraction reagent by shaking for 20 min (IKA Vibrax VXR, Germany). After centrifugation at 3000 rpm for 20 min (Universal 32, Hettich, Germany), the organic layer was transferred to a new tube containing a 200 μl solution of 0.1 M H2SO4 and methanol (90 : 10, v/v), shaken for 0.5 h and then centrifuged for 15 min (3000 rpm). The organic layer was discarded and a 50 μl aliquot of the acidic solution was injected into the HPLC system. In the case of escitalopram, the procedure was similar with the exception that the extraction with an organic reagent was repeated two times, 1 ml of brain homogenate was used, and the volume of the acidic phase was 100 μl. In turn, to 1 ml of brain homogenates containing fluoxetine the IS was added and the samples were alkalized with 500 μl of 4 M NaOH. After the addition of 1 ml of the concentrated NaCl solution (10 g/50 ml), the samples were vortexed for 15 s and 5 ml of the extraction reagent was added. Then the samples were shaken for 20 min and centrifuged for 15 min at 3000 rpm. After the centrifugation, the organic layer was transferred into a conical glass tube and evaporated to dryness at 37 °C under a gentle stream of nitrogen in a water bath. The residue was dissolved with 100 μl of methanol and 50 μl of this solution was injected into the HPLC system.
The HPLC system (Thermo Separation Products, San Jose, CA, USA) consisted of a P100 isocratic pump, a UV100 variable-wavelength UV/VIS detector, a Rheodyne 7125 injector (Rheodyne, Cotati, CA, USA) with a 50 μl sample loop, and a Chromjet SP4400 computing integrator.
All analyses were performed on a 250 × 4.0 mm LiChrospher®100 RP-18 column with a particle size of 5 μm (Merck, Darmstadt, Germany) protected with a guard column (4 × 4 mm) with the same packing material. The mobile phase consisting of 50 mM potassium dihydrogen phosphate buffer (pH = 4.5) and acetonitrile was mixed at a ratio of 60 : 40 (v/v) for imipramine and fluoxetine, and 65 : 35 (v/v) for escitalopram and run at 1 ml/min. Chromatographic analysis was carried out at 21 °C and the analytical wavelength of 227 nm for fluoxetine, 240 nm for escitalopram, and 214 nm for imipramine.
In order to determine traxoprodil concentrations in mice brain, to 1 ml of brain homogenate containing this compound 2 ml of methanol was added and the samples were briefly vortexed and then shaken vigorously for 10 min (IKA Vibrax VXR, Germany) to precipitate proteins. After centrifugation for 20 min at 3000 rpm the supernatant (2 ml) was transferred into a conical glass tube and evaporated to dryness at 45 °C under a gentle stream of nitrogen in a water bath. The residue was dissolved with 100 μl of methanol and 40 μl of this solution were injected into the HPLC system.

[3] = system: mice; assay: Spontaneous locomotor activity (Opto-Varimex-4 Auto-Track); assay type: in vivo, Albino Swiss mice; details: for Distance traveled: mean ± SEM; for effects on locomotor activity: administered either alone or combined together, doses of Table 2 (traxoprodil 10 and 20 mg/kg), two-way ANOVA
Description: In order to avoid the risk of obtaining the false positive/negative effects in the FST caused by a possible influence of the tested drugs on the locomotor activity, spontaneous locomotor activity was measured using an animal activity meter Opto-Varimex-4 Auto-Track (Columbus Instruments, USA). The device consists of four transparent cages with a lid (43 × 43 × 32 cm), a set of four infrared emitters (each emitter has 16 laser beams), and four detectors monitoring animal movements. Each mouse was placed individually into the cage for 10 min. Spontaneous locomotor activity was evaluated between the 2nd and the 6th min, which corresponds with the time interval analyzed in the FST.
The results obtained in this test were presented as an arithmetic average distance (given in cm) traveled by a mouse ± SEM for each experimental group.

[4] = system: mice; parameters: method as in Poleszak et al. [2013]; details: ref Poleszak et al. [2013]; cited from earlier work

CN(C)CCC[C@@]1(c2ccc(F)cc2)OCc2cc(C#N)ccc21 [escitalopram, escitalopram oxalate]
immobility time in FST ([1]; escitalopram 2 mg/kg given alone i.p., Fig. 2c): no effect
concentration at 60 min ([2]; 2 mg/kg, Antidepressants concentration in brain, escitalopram 2 mg/kg + saline i.p., n=10): 296 ± 17.7 ng/g
concentration at 60 min ([2]; Antidepressants concentration in brain, escitalopram 2 mg/kg + traxoprodil 10 mg/kg i.p., n=10): 361 ± 20.5 ng/g
change of concentration in brain tissue after joint administration with traxoprodil [2]: significant increase
Distance traveled ([3]; Table 2 (C): escitalopram 2 mg/kg + saline i.p.): 957.1 ± 174.1 cm
effects on locomotor activity [3]: no statistically significant effects

CN(C)CCCN1c2ccccc2CCc2ccccc21 [imipramine, imipramine hydrochloride]
immobility time in FST ([1]; imipramine 15 mg/kg given alone i.p., Fig. 2a): no effect
concentration at 60 min ([2]; 15 mg/kg, Antidepressants concentration in brain, imipramine 15 mg/kg + saline i.p., n=10): 2060 ± 253 ng/g
concentration at 60 min ([2]; Antidepressants concentration in brain, imipramine 15 mg/kg + traxoprodil 10 mg/kg i.p., n=10): 3210 ± 374 ng/g
Distance traveled ([3]; Table 2 (A): imipramine 15 mg/kg + saline i.p.): 492.3 ± 57.11 cm
effects on locomotor activity [3]: no statistically significant effects
Distance traveled ([3]; imipramine 30 mg/kg i.p. 60 min before test, 2nd-6th min, n=8, Table 1): 653.9 ± 99.38 cm

COc1ccccc1N1CCN(CCN(C(=O)C2CCCCC2)c2ccccn2)CC1 [WAY 100,635]
immobility time in FST ([1]; WAY 100,635 0.1 mg/kg i.p. alone, Fig. 3b): no effect
Distance traveled ([3]; Table 2 (F): WAY 0.1 mg/kg + saline i.p.): 639.0 ± 59.16 cm
effects on locomotor activity [3]: no statistically significant effects

CCOc1ccccc1OC(c1ccccc1)C1CNCCO1 (centres unmarked) [reboxetine, reboxetine mesylate]
immobility time in FST ([1]; reboxetine 2.5 mg/kg given alone i.p., Fig. 2d): no effect
Distance traveled ([3]; Table 2 (D): reboxetine 2.5 mg/kg + saline i.p.): 566.1 ± 54.75 cm

Cc1nc2sccn2c(=O)c1CCN1CCC(=C(c2ccc(F)cc2)c2ccc(F)cc2)CC1 [ritanserin]
immobility time in FST ([1]; ritanserin 4 mg/kg i.p. alone, Fig. 3c): no effect
Distance traveled ([3]; Table 2 (G): ritanserin 4 mg/kg + saline i.p.): 607.5 ± 79.78 cm
effects on locomotor activity [3]: no statistically significant effects

N[C@@H](Cc1ccc(Cl)cc1)C(=O)O (racemic) [p-CPA, p-chlorophenylalanine]
immobility time in FST ([1]; p-CPA 200 mg/kg i.p. per 3 days, alone, Fig. 3a): no effect
Distance traveled ([3]; Table 2 (E): p-CPA 200 mg/kg i.p. once daily over three days + saline): 656.4 ± 107.4 cm
effects on locomotor activity [3]: no statistically significant effects

CNCCCN1c2ccccc2CCc2ccccc21 [desipramine]
Antidepressants concentration in brain ([2]; imipramine 15 mg/kg + saline i.p., n=10): (101.0 ± 19.86) ng/g
Antidepressants concentration in brain ([2]; imipramine 15 mg/kg + traxoprodil 10 mg/kg i.p., n=10): (724.0 ± 109.0***) ng/g
change of concentration in brain tissue after joint administration with traxoprodil [2]: significant increase

CC(C(O)c1ccc(O)cc1)N1CCC(Cc2ccccc2)CC1 (centres unmarked) [ifenprodil]
dose range with antidepressant effect in the FST [4]: 20 to 40 mg/kg

CNCCC(Oc1ccc(C(F)(F)F)cc1)c1ccccc1 (centres unmarked) [fluoxetine, fluoxetine hydrochloride]
immobility time in FST ([1]; fluoxetine 5 mg/kg given alone i.p., Fig. 2b): no effect
Distance traveled ([3]; Table 2 (B): fluoxetine 5 mg/kg + saline i.p.): 667.8 ± 111.1 cm
effects on locomotor activity [3]: no statistically significant effects

C[C@@H]([C@@H](O)c1ccc(O)cc1)N1CCC(O)(c2ccccc2)CC1 [traxoprodil]
FST effect compared with imipramine at an active dose ([1]; highest traxoprodil dose used (40 mg/kg) vs imipramine 30 mg/kg): effect similar to the action of imipramine
immobility time in FST vs control group ([1]; traxoprodil 5 mg/kg i.p. 60 min before test): no statistically significant effect
immobility time in FST ([1]; traxoprodil 10 mg/kg given alone i.p., Fig. 2a): no effect
immobility time in FST vs control group ([1]; traxoprodil 10 mg/kg i.p. 60 min before test): no statistically significant effect
immobility time in FST vs control group ([1]; traxoprodil 20 mg/kg i.p. 60 min before test): significantly reduced
immobility time in FST ([1]; traxoprodil 20 mg/kg i.p., WAY 100,635 experiment, Fig. 3b): significantly reduced
immobility time in FST ([1]; traxoprodil 20 mg/kg i.p., p-CPA experiment, Fig. 3a): significantly reduced
immobility time in FST ([1]; traxoprodil 20 mg/kg i.p., ritanserin experiment, Fig. 3c): significantly reduced
immobility time in FST vs control group ([1]; traxoprodil 40 mg/kg i.p. 60 min before test): significantly reduced
concentration at 60 min ([2]; 10 mg/kg, Traxoprodil concentration in brain, traxoprodil 10 mg/kg + saline ip, n=7–8): 76.4 ± 13.5 ng/g
concentration at 60 min ([2]; Traxoprodil concentration in brain, traxoprodil 10 mg/kg + escitalopram 2 mg/kg ip): 249 ± 49.2 ng/g
concentration at 60 min ([2]; Traxoprodil concentration in brain, traxoprodil 10 mg/kg + fluoxetine 5 mg/kg ip): 151 ± 10.3 ng/g
concentration at 60 min ([2]; Traxoprodil concentration in brain, traxoprodil 10 mg/kg + imipramine 15 mg/kg ip): 119 ± 22.5 ng/g
change of traxoprodil concentration in brain ([2]; joint administration with escitalopram vs traxoprodil group, t-test p < 0.01): significant increase
change of traxoprodil concentration in brain ([2]; joint administration with fluoxetine vs traxoprodil group, t-test p < 0.001): significant increase
change of traxoprodil concentration in brain ([2]; joint administration with imipramine vs traxoprodil group, t-test p > 0.05): No statistically significant changes
Distance traveled ([3]; Table 2 (A): traxoprodil 10 mg/kg + saline i.p.): 629.1 ± 79.29 cm
Distance traveled ([3]; Table 2 (B): traxoprodil 10 mg/kg + saline i.p.): 629.1 ± 79.29 cm
Distance traveled ([3]; Table 2 (C): traxoprodil 10 mg/kg + saline i.p.): 986.8 ± 278.5 cm
Distance traveled ([3]; Table 2 (D): traxoprodil 10 mg/kg + saline i.p.): 629.1 ± 79.29 cm
Distance traveled ([3]; Table 2 (E): traxoprodil 20 mg/kg + saline i.p.): 731.1 ± 145.1 cm
Distance traveled ([3]; Table 2 (F): traxoprodil 20 mg/kg + saline i.p.): 687.5 ± 71.45 cm
Distance traveled ([3]; Table 2 (G): traxoprodil 20 mg/kg + saline i.p.): 687.5 ± 71.45 cm
effects on locomotor activity [3]: no statistically significant effects
effect on locomotor activity versus control group ([3]; all tested doses (5, 10, 20, and 40 mg/kg), one-way ANOVA): no statistically significant effect
Distance traveled ([3]; traxoprodil 5 mg/kg i.p. 60 min before test, 2nd-6th min, n=8, Table 1): 915.0 ± 92.10 cm
Distance traveled ([3]; traxoprodil 10 mg/kg i.p. 60 min before test, 2nd-6th min, n=8, Table 1): 738.5 ± 49.93 cm
Distance traveled ([3]; traxoprodil 20 mg/kg i.p. 60 min before test, 2nd-6th min, n=8, Table 1): 912.0 ± 75.87 cm
Distance traveled ([3]; traxoprodil 40 mg/kg i.p. 60 min before test, 2nd-6th min, n=8, Table 1): 789.1 ± 119.8 cm
